Laboratory results from patent publication EP0014981A2, “Medicaments and pharmaceutical compositions with cytostatic activity” (Henkel Kommanditgesellschaft auf Aktien, priority 1979, dated 1980).

Columns and labels:
Assay type in all cases: in vivo, Mäuse
[1] = test system: gegenüber Cyclophosphamid (NSC 26271) resistente Leukämieform von P 388; test: Cyclophosphamide-resistant P 388 leukaemia in mice, survival; conditions: 10 mice
Procedure: (§1) Die nachfolgenden Beispiele wurden durchgeführt nach Testvorschriften des National Cancer Institute Bethesda, Maryland 200014, veröffentlicht in "Cancer Chemotherapy Reports" Part. 3, Sept. '72, Vol. 3, Nr. 2. Als Wirksubstanz wurde verwendet α-Triglycidylisocyanurat (F 106° C) sowie β-Triglycidylisocyanurat (F 158 °C), beide mit 16,1 % Epoxidsauerstoffgehalt (Herstellung siehe US-PS 3,337,509).
(§2) Alle wäßrigen 1 %igen Injektionslösungen wurden unmittelbar vor der Applikation frisch hergestellt.
Eine gegenüber Cyclophosphamid (NSC 26271) resistente Leukämieform von P 388 wurde mit α-T3I und Cyclophosphamid behandelt. Jede Gruppe bestand aus 10 Mäusen.

Ependymoblastom = test: Intracerebrally implanted ependymoblastoma in mice, survival; conditions: 40 mg/kg p.die, 9 days
Procedure: as §1, §2
Bei einer Testgruppe von Mäusen wurde durch intracerebra1 mm^3 eines Gewebes von Ependymoblastom implantiert. Die mittlere Überlebensdauer bei der Kontrollgruppe be- trug 19,3 Tage.

Lungencarcinom (Lewis) = test: Lewis lung carcinoma in mice, NCI protocol 1.400, inhibition of metastases; conditions: days 1 to 11, after 23 days
Procedure: as §1, §2
Gemäß Protokoll 1.400 (Seite 13 1.c.) wurden bei Mäusen Zellen, s.c. eines 1 mm^3 Stücks Lungencarcinom (Lewis) implantiert. Dann erfolgte vom 1. bis 11. Tag i.p. Verabfolgung von 40 mg/kg p.die an α-TGI bzw. 90 mg/kg p.die an β -TGI.

Coloncarcinom 26 = test: Colon carcinoma 26 i.p. in mice, survival; conditions: for Mäuse lebend, 60 Tage / alle Mäuse lebend (day up to which): groups of 10 mice
Procedure: as §1, §2
8) Durch i.p. Inplantation (1 mm^3 Coloncarcinom 26) wurde bei Gruppen von jeweils 10 Mäusen ein Ca gesetzt Die Behandlung erfolgte durch i.p.-Verabfolgung von α-TGI. In der nachfolgenden Tabelle III sind die Ergebnisse in Abhängigkeit der jeweils am 1., 5. und 9. Tag applizierten Menge wiedergegeben.

[2] = test system: Tumorart P 388 (Leucämie); test: Leukaemia P 388 in mice, NCI protocol 1 200, survival; conditions: for Heilung: % of animals
Procedure: as §1, §2
Bei Mäusen wurde gemäß Protokoll 1 200 (Seite 9 l.c.) die Tumorart P 388 (Leucämie) i.p. mit 10^6 Zellen/Maus ge- setzt. Die unbehandelten Tiere hatten eine mittlere Überlebensdauer von 10,5 Tagen.
Bei Mäusen wurde gemäß Protokoll 1 200 (Seite 9 1.c.) die Tumorart P 388 Leucämie i.p. mit 10^6 Zellen/Maus gesetzt. Die unbehandelten Tiere hatten eine mittlere überlebensdauer von 10 Tagen.

[3] = Tolerated maximum daily dose in mice, i.p. aqueous solutions; conditions: clear toxic effects only at higher doses
Procedure: Im Tierexperiment hat sich die Verwendung von frisch hergestellten, wäßrigen Lösungen, die i.p. gegeben werden, als zweckmäßig erwiesen. Von α- beziehungsweise β-Triglycidylisocyanurat kann bei Mäusen die Maximaldosis p.die 100 mg/kg Maus betragen. Deutliche toxische Wirkungen treten erst bei höherer Dosierung auf. Als optimale Dosierung hat sich in vielen Fällen eine Gabe von 30 mg bis 60 mg/kg Maus während einer Applikationsdauer von 1 bis 9 Tagen bewährt.

Coloncarcinom 38 = test: Colon carcinoma 38 s.c. in mice, tumour weight; conditions: after 20 days (control 512 mg/Maus)
Procedure: as §1, §2
A)Gruppen von 10 Mäusen wurde etwa 1 mm^3 Coloncarcinom 38 s.c. implantiert. Das mittlere Turaorgetuicht betrug bei der unbehandelten Kontrollgruppe nach 20 Tagen: 512mg/Maus.

Melanom B16 = test: Melanoma B 16 in mice, NCI instruction 1.300, survival; conditions: days 1 to 9
Procedure: as §1, §2
bei Mäusen wurde gemäß Anweisung 1.300 das 1/10 Homogenzt teranom B 16 jeweils 0,5 ml pro Maus i.p, verabfolgt gergl. S. 11 1,c.).
Die Kontrollgruppe hatte eine mittlere Überlebenszeit von 15,3 Tagen (m.s.t.).
Behandelte Gruppen erhielten vom 1. bis 9. Tag verschiedene Mengen α-TGI i.p. In der nachfolgenden Tabelle II ist die mittlere überlebensdauer und T/C in Ahhängigkeit der p.die gegebenen Menge Wirkstoff wiedergegeben.

Sarcom 180 = test: Sarcoma 180 i.p. in mice, survival; conditions: 30 mg/kg i.p., days 1 to 9
Procedure: as §1, §2
Durch i.p-Verabfolgung von 10^6 Zellen pro Maus wurde das Sarcom 180 gesetzt. Die unbehandelte Kontrollgrüppe hatte eine mittlere überlebenszeit von 20, 2 Tagen.

Leukämie L 1210 = test: Leukaemia L 1210 in mice, NCI protocol 1.100, survival; conditions: for Überlebende / ganze Gruppe, leukäm. M. / Überlebende / ganze Gruppe, Kontrollgruppe: after 30 days; for Überlebende / ganze Gruppe, Kontrollgruppe: control group
Procedure: as §1, §2
Bei Mäusen wurde gemäß Protokoll 1.100 (Seite 7 1.c.) Leukämie L 1210 durch i.p. Verabreichung von 0,1 ml verdünnter Erregerlösung entsprechend 10^5 Zellen erzeugt. Bei der Kontrollgruppe betrug die mittlere Überlebensdauer 8 Tage (m.s.t.).
B) Der Einfluß der Behandlungsplanung auf die therapeutische Wirksamkeit von α-TGI bei Tumor L 1210 nach 30 Tagen ist der nachfolgenden Tabelle I zu entnehmen.

[4] = 50 mg/kg p.die i.p., days 1 to 9
[5] = 50 mg/kg p.die i.p., days 1 to 9, group of 6 mice
[6] = 100 mg/kg p.die i.p., days 1 to 9

Compound: O=c1n(CC2CO2)c(=O)n(CC2CO2)c(=O)n1CC1CO1 (single isomer, unassigned) [α-TGI, α-Triglycidylisocyanurat]
- Mäuse überlebten 60 Tage ([1]; 40 mg/kg, days 1 to 9): alle
- T/C ([1]; 40 mg/kg, days 1 to 9): 478%
- T/C (Ependymoblastom): 165%
- Hemmung an Metastasen gegenüber der Kontrollgruppe (Lungencarcinom (Lewis); 40 mg/kg p.die i.p.): 92%
- Mäuse lebend, 60 Tage (Coloncarcinom 26; 25 mg i.p. on days 1, 5 and 9): 6 von 10
- alle Mäuse lebend (day up to which) (Coloncarcinom 26; 25 mg i.p. on days 1, 5 and 9): 25 Tage
- Mäuse lebend, 60 Tage (Coloncarcinom 26; 50 mg i.p. on days 1, 5 and 9): 60 Tage noch 10 Mäuse lebend
- Mäuse lebend, 60 Tage (Coloncarcinom 26; 100 mg i.p. on days 1, 5 and 9): 4 Mäuse
- alle Mäuse lebend (day up to which) (Coloncarcinom 26; 100 mg i.p. on days 1, 5 and 9): 49 Tage
- T/C ([2]; 25 mg/kg p.die, 9 doses): 196%
- T/C ([2]; 50 mg/kg p.die i.p., 9 days): 200%
- Heilung ([2]; 50 mg/kg p.die, 9 days): 17%
- T/C, Verlängerungsrate (mittlere Lebenserwartung gegenüber der Kontrollgruppe) ([2]; 100 mg/kg p.die i.p., 9 days): 285%
- behandelte Mäuse lebten länger als 40 Tage (als geheilt anzusehen) ([2]; 100 mg/kg p.die i.p., 9 days, fraction of treated mice): Die Hälfte
- MTD ([3]; mouse, in vivo, ip, read-out: Maximaldosis p.die): 100 mg/kg/day
- mittleres Tumorgewicht (Coloncarcinom 38; 50 mg/kg p.die on days 2, 9 and 16): 183 mg pro Maus
- mittleres Tumorgewicht (Coloncarcinom 38; 50 mg/kg p.die on days 2 and 9): 153 mg pro Maus
- T/C (Melanom B16; 25 mg p.die i.p.): 227%
- m. s. t. (Tage) (Melanom B16; 25 mg p.die i.p.): 36,0 Tage
- T/C (Melanom B16; 50 mg p.die i.p.): 234%
- m. s. t. (Tage) (Melanom B16; 50 mg p.die i.p.): 37,0 Tage
- T/C (Melanom B16; 12,5 mg p.die i.p.): 188%
- m. s. t. (Tage) (Melanom B16; 12,5 mg p.die i.p.): 29,8 Tage
- T/C (Sarcom 180): 183%
- Überlebende / ganze Gruppe, leukäm. M. (Leukämie L 1210; 40 mg 9x i.p. (1.bis 9.Tag)): 8/10
- Überlebende / ganze Gruppe, Kontrollgruppe (Leukämie L 1210; 40 mg 9x i.p. (1.bis 9.Tag)): 8/8
- Überlebende / ganze Gruppe, leukäm. M. (Leukämie L 1210; 50 mg 5x i.p. (1.bis 5.Tag)): 5/10
- Überlebende / ganze Gruppe, Kontrollgruppe (Leukämie L 1210; 50 mg 5x i.p. (1.bis 5.Tag)): 7/8
- T/C (Leukämie L 1210; [4]): 297%
- mittlere Überlebensdauer (Leukämie L 1210; [4]): 23,8 Tage
- 30 Tage erreichten (Leukämie L 1210; [5]): 3 Mäuse
- Heilungsrate (Leukämie L 1210; [5]): ~50%

Compound: O=c1n(CC2CO2)c(=O)n(CC2CO2)c(=O)n1CC1CO1 (single isomer, unassigned) [β-TGI, β-Triglycidylisocyanurat]
- Hemmung an Metastasen gegenüber der Kontrollgruppe (Lungencarcinom (Lewis); 90 mg/kg p.die i.p.): 87%
- T/C ([2]; 25 mg/kg p.die, 9 doses): 174%
- T/C ([2]; 50 mg/kg p.die i.p., 9 days): 179%
- Heilung ([2]; 50 mg/kg p.die, 9 days): 17%
- T/C, Verlängerungsrate (mittlere Lebenserwartung gegenüber der Kontrollgruppe) ([2]; 100 mg/kg p.die i.p., 9 days): 228%
- Heilung ([2]; 100 mg/kg p.die, 9 days): 17%
- Maximaldosis p.die [3]: 100 mg/kg Maus
- T/C (Leukämie L 1210; [4]): 203%
- mittlere Überlebensdauer (Leukämie L 1210; [4]): 16,3 Tage
- T/C (Leukämie L 1210; [6]): 315%
- mittlere Überlebensdauer (Leukämie L 1210; [6]): 25,2 Tage

Compound: O=P1(N(CCCl)CCCl)NCCCO1 (stereo not shown) [Cyclophosphamid, reference compound]
- T/C ([1]; 180 mg/kg): 150%
- Überlebenszeit der behandelten Mäuse ([1]; 180 mg/kg): < 30 Tage

Compound: O=c1[nH]cc(F)c(=O)[nH]1 [Fluoruracil, reference compound]
- mittlere überlebensdauer (Coloncarcinom 26; positive comparison, dose not given, 10 mice): 55 Tage
- Mäuse lebend am 60. Tag (Coloncarcinom 26; positive comparison, dose not given, of 10 mice): 2 Mäuse

Compound: CC1(Cn2c(=O)n(CC3(C)CO3)c(=O)n(CC3(C)CO3)c2=O)CO1 (stereo not shown) [Tri-(2-methylglycidyl)-isocyanurat]
- T/C ([2]; 50 mg/kg p.die i.p., 9 days): 150%
- T/C, Verlängerungsrate (mittlere Lebenserwartung gegenüber der Kontrollgruppe) ([2]; 100 mg/kg p.die i.p., 9 days): 170%
